In US9028880B2, “Silica nanoparticle agent conjugates” (priority 2010, dated 2015):

What was measured:
[1] = system: LLC tumor; assay: In vivo tumor prevention study; design: species or system C57Bl/6 mice; conditions: s.c. co-injection with LLC cells
Experimental: To access the ability of Cpt-NCs to prevent establishment of a murine lung cancer in an in vivo model, Cpt-NCs were evaluated in the rapidly growing subcutaneous (s.c.) LLC tumor model in C57Bl/6 female mice. The ability of Cpt50 (5 mg/kg) to prevent LLC tumor establishment and growth was assessed by comparing to free Cpt (5 mg/kg) and LLC cancer cells alone without any treatment. The mice were s.c. injected with the mixture of [LLC and Cpt50], [LLC and Cpt] or LLC alone Animals were monitored clinically and the tumors were measured daily without knowledge of the treatment received.
Female C57Bl/6 mice, 12-13 weeks old, were anesthetized, shaved, and prepared for implantation of the tumor cells. LLC cells were collected from culture, and 750,000 cells were then mixed with Cpt50 and immediately injected subcutaneously into one flank of a mouse. The dose of equivalent Cpt was 5 mg/kg. Equivalent injections of cells with free CPT solubilized with Tween 80 (5%)/DMSO (10%) or PBS were also performed (n=5). The simultaneous injection procedure is required to assure that the cancer cells and the treatment are delivered to the same subcutaneous pocket as it would be easy to accidentally inject into different spaces when performing two separate injections.

[2] = system: LNCaP prostate adenocarcinoma cells; assay: In vitro toxicity (MTT assay); format: cell-based; conditions: Homo sapiens, MTT assay after 96 h, CPT or equivalent CPT
Experimental: 3.3. In vitro toxicity (MTT assay). LNCaP prostate adenocarcinoma cell lines were obtained from ATCC (Manassas, Va., USA). Cells were seeded in 96-well plates at 5,000 cells/well and grown in medium containing 10% fetal bovine serum at 37° C. for 24 h in a humidified 5% CO2 atmosphere. The medium was replaced with fresh medium containing CPT, CPT-NPs in concentrations ranging from 1 nM to 10 μM of CPT or equivalent CPT (CPT-NPs). At each concentration, six wells per plate were treated. The effect of the compounds on cell growth was measured by the MTT assay after 96 h. The medium was removed, the cells were rinsed with PBS, MTT solution was added at a concentration of 0.5 mg/mL, and the plates were incubated for 4 hours at 37° C. The medium was removed and the formazan crystals were solubilized in MTT solubilization solution. Absorbance was measured at 560 nm using a Victor V microplate reader (Perkin Elmer, Waltham, Mass.). The percentage of cell survival was calculated relative to untreated cells, and IC50 values were determined from plots of cell survival versus dose (Table 4).

[3] = system: LLC tumor; assay: In vivo tumor reduction study, single i.v. injection; design: species or system C57Bl/6 mice; conditions: emulsified Cpt 30 mg/kg i.v.; all animals reached end point at about day 5
Experimental: The efficacy of the drug conjugated silica NPs was next evaluated using xenograft models of LLC tumor developed by s.c. injection of LLC cells in the flank of C57BL/6 mice. […] Using Cpt as a reference point, the following regimens were administrated by a single i.v. injection: a, PBS; b, PEGylated blank silica NPs; c, emulsified Cpt, 30 mg/kg; d, Cpt-NP, 200 nm, 25 mg/kg; e, Cpt-NP, 20 nm, 25 mg/kg. Tumor size and body weight were then monitored for 10 days. […] Both Cpt-NPs 20 nm and 200 nm in diameter delayed tumor growth at Day 7 and 6, respectively, with statistical significance comparing with control group receiving PBS (p<0.05 by t-test). […] All animals in free Cpt group reached end point with >20% body weight loss at about day 5.
4.5. In vivo Tumor Reduction Study. Female C57Bl/6 mice, 8-week old, were anesthetized, shaved, and prepared for implantation of the tumor cells. […] After two weeks when tumors had reached ˜300 mm^3, mice were divided into five groups of five mice, minimizing weight and tumor size difference. Tumor-bearing mice were treated by intravenous injection of PBS (1×), PEGylated blank silica NPs (250 mg/kg), emulsified free CPT (Tween 80 (5%)/DMSO (10%) in PBS (1×), 30 mg/kg), CPT-NP (200 nm, 25 mg/kg) or CPT-NP (20 nm, 25 mg/kg). […]

[4] = system: MCF-7 tumors; assay: In vivo tumor reduction study, MCF-7 xenograft
Experimental: To further study the effect of particle size, a xenograft human breast cancer model was chosen. Subcutaneous MCF-7 tumors developed on the flank of athymic nude mice were used to evaluate the antitumor efficacy of the drug-silica nanoconjugates with different sizes. The nude mice were implanted with an estrogen pellet and 1,000,000 MCF-7 cells per site. After tumors had developed to ˜40 mm^3, comparative efficacy studies were performed by dividing animals into six groups (n=20 or 24) to minimize weight and tumor size differences among the groups.
Female athymic nude, OVX, 9-week old mice were anesthetized, and prepared for implantation of the tumor cells. […]
After dosing, the animals were monitored closely, and measurements of the tumor size for each animal were performed at regular intervals using calipers without knowledge of which injection each animal had received. The tumor volume for each time point was calculated according to the formula (length)×(width)/2, where the long axis is the length, the short axis is the width. […] When an animal exited the study due to tumor size or treatment related death, the final tumor size recorded for the animal was included with the data used to calculate the mean size at subsequent time point.

Row | Structure (SMILES) | Day of statistically significant difference vs LLC group ([1]; 5 mg/kg) [days] | Tumor growth prevention ([1]; 5 mg/kg equivalent Cpt) | IC50 [2] [nM] | body weight loss [3] [%] | Day from which tumor growth delay was significant vs PBS group ([4]; NCs 20 mg/kg i.v. Q4d×3, Irinotecan 100 mg/kg i.p. Qwk×3, *p<0.05) [days] | Body weight / systemic toxicity ([4]; NCs 20 mg/kg, Irinotecan 100 mg/kg)
1 | CC[C@@]1(O)C(=O)OCc2c1cc1n(c2=O)Cc2cc3ccccc3nc2-1 [CPT, Camptothecin] | 20 | complete inhibition of tumor growth after Day 20 | 7 | > 20 | – | –
2 | CCc1c2c(nc3ccc(OC(=O)N4CCC(N5CCCCC5)CC4)cc13)-c1cc3c(c(=O)n1C2)COC(=O)[C@]3(O)CC [Irinotecan] | – | – | – | – | 8 | Significant body weight loss
